Reference: ChEMBL document CHEMBL5370598, “[3H]UR-JG102-A Radiolabeled Cyclic Peptide with High Affinity and Excellent Selectivity for the Neuropeptide Y Y4 Receptor” (J Med Chem, 2023)
One block for each compound: values may come before it.

Columns and labels:
[1] = target: T1, Neuropeptide Y receptor type 4 (Homo sapiens, UniProt P50391); assay: Binding affinity to human Y4R under sodium free condition
[2] = target: T1, Neuropeptide Y receptor type 4; assay: (§1) Displacement of [3H]-(9S,12S,15S,19R,E)-4-amino-N-((S)-1-(((S)-1-(((S)-1-amino-3-(4-hydroxyphenyl)-1-oxopropan-2-yl)amino)-5-guanidino-1-oxopentan-2-yl)amino)-4-methyl-1-oxopentan-2-yl)-15-(3-guanidinopropyl)-12-(4-hydroxybenzyl)-2,11,14,17,20-pentaoxo-19-(4-(propanamido-2,3-t2)butanamido)-1,3,5,10,13,16,21-heptaazacyclopentacos-3-ene-9-carboxamide from human Y4R expressed in CHO cells coexpressing Gqi5-mtAEQ under hypotonic sodium free buffer condition; assay type: cell-based
[3] = target: T1, Neuropeptide Y receptor type 4; assay: as §1, with “isotonic” for “hypotonic”, “containing” for “free”; assay type: cell-based
[4] = Chemical stability in PBS buffer at pH 7.4 after 48 hrs by RP-HPLC analysis; assay type: physicochemical; details: pH 7.4, 48 h
[5] = target: T2, Neuropeptide Y receptor type 1 (Homo sapiens, UniProt P25929); assay: Displacement of [3H]UR-MK299 from human Y1R expressed in SK-N-MC cells; assay type: cell-based
T2 sequence (P25929 whole entry): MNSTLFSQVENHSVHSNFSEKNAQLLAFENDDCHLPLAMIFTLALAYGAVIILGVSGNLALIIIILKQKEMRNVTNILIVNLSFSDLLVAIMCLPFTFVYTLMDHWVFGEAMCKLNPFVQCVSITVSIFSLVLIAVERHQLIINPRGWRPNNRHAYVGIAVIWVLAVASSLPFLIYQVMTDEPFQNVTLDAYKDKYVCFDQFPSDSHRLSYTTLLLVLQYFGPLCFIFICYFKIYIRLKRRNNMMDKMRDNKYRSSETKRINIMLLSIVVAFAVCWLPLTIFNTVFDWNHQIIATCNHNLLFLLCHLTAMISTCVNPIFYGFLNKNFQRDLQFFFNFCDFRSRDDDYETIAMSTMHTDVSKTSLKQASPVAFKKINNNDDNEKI

[6] = target: T3, Neuropeptide Y receptor type 2 (Homo sapiens, UniProt P49146); assay: Displacement of [3H]propionyl-pNPY from human Y2R expressed in CHO cells; assay type: cell-based
T3 sequence (P49146 whole entry): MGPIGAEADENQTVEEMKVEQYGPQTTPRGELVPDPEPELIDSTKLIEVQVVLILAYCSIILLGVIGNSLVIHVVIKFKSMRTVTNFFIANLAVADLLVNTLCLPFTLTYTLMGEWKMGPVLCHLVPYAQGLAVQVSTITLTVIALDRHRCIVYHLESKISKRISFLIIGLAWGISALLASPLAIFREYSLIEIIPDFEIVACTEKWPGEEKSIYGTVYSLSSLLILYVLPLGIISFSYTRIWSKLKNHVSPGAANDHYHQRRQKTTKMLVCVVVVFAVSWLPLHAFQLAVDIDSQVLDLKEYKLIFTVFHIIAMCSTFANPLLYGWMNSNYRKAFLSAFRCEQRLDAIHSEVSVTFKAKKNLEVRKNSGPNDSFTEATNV

[7] = target: T1, Neuropeptide Y receptor type 4; assay: Displacement of [3H]UR-KK200 from human Y4R expressed in CHO cells co-expressing Gqi5-mtAEQ; assay type: cell-based
[8] = target: T4, Neuropeptide Y receptor type 5 (Homo sapiens, UniProt Q15761); assay: Displacement of [3H]propionyl-pNPY from human Y5R expressed in HEC-1B cells; assay type: cell-based, HEC-1B cell line
T4 sequence (Q15761 whole entry): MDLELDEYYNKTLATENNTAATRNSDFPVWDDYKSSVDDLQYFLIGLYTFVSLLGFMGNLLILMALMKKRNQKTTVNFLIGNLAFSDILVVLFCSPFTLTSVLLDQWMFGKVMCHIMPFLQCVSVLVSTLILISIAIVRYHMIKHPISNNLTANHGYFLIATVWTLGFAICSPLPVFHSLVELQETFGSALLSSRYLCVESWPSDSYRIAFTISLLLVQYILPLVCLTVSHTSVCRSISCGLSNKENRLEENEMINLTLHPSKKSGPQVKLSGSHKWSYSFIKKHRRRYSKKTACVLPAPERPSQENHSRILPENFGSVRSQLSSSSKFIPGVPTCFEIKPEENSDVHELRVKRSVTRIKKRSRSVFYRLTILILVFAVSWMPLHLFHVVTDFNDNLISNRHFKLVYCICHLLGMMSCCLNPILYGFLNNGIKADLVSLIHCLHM

Homo sapiens [9] = organism: Homo sapiens; assay: Selectivity ratio of pKi for human Y1R to pKi for human Y4R
Homo sapiens [10] = organism: Homo sapiens; assay: Selectivity ratio of pKi for human Y2R to pKi for human Y4R
Homo sapiens [11] = organism: Homo sapiens; assay: Selectivity ratio of pKi for human Y5R to pKi for human Y4R
[12] = target: T1, Neuropeptide Y receptor type 4; assay: Agonist activity at human Y4R expressed in CHO cells co-expressing Gqi5-mtAEQ by calcium2+ aequorin assay; assay type: functional, cell-based
[13] = target: T1, Neuropeptide Y receptor type 4; assay: Agonist activity at human Y4R expressed in HEK293T cells by miniGsi assay; assay type: functional, cell-based
[14] = target: T1, Neuropeptide Y receptor type 4; assay: Agonist activity at human Y4R expressed in HEK293T cells incubated for 60 mins by cAMP CAMYEN assay; assay type: functional, cell-based
[15] = target: T1, Neuropeptide Y receptor type 4; assay: Agonist activity at human Y4R expressed in CHO cells co-expressing Gqi5-mtAEQ by calcium2+ aequorin assay relative to control; assay type: functional, cell-based; details: filed as agonist
[16] = target: T1, Neuropeptide Y receptor type 4; assay: Agonist activity at human Y4R expressed in HEK293T cells by miniGsi assay relative to control; assay type: functional, cell-based; details: filed as agonist
[17] = target: T1, Neuropeptide Y receptor type 4; assay: Agonist activity at human Y4R expressed in HEK293T cells incubated for 60 mins by cAMP CAMYEN assay relative to control; assay type: functional, cell-based; details: filed as agonist
[18] = target: T1, Neuropeptide Y receptor type 4; assay: Binding affinity to human Y4R expressed in CHO cells co-expressing Gqi5-mtAEQ assessed as observed association rate constant under sodium free buffer condition; assay type: cell-based; details: filed as agonist, tested as the 3H-labelled form
[19] = target: T1, Neuropeptide Y receptor type 4; assay: Binding affinity to human Y4R expressed in CHO cells co-expressing Gqi5-mtAEQ assessed as Koff under sodium free buffer condition; assay type: cell-based; details: filed as agonist, tested as the 3H-labelled form
[20] = target: T1, Neuropeptide Y receptor type 4; assay: Binding affinity to human Y4R expressed in CHO cells co-expressing Gqi5-mtAEQ assessed as Kon under sodium free buffer condition; assay type: cell-based; details: filed as agonist, tested as the 3H-labelled form
[21] = target: T1, Neuropeptide Y receptor type 4; assay: Binding affinity to human Y4R expressed in CHO cells co-expressing Gqi5-mtAEQ assessed as observed association rate constant preincubated for 20 mins under DPBS condition; assay type: cell-based; details: filed as agonist, tested as the 3H-labelled form
[22] = target: T1, Neuropeptide Y receptor type 4; assay: Binding affinity to human Y4R expressed in CHO cells co-expressing Gqi5-mtAEQ assessed as Koff preincubated for 20 mins under DPBS condition; assay type: cell-based; details: filed as agonist, tested as the 3H-labelled form
[23] = target: T1, Neuropeptide Y receptor type 4; assay: Binding affinity to human Y4R expressed in CHO cells co-expressing Gqi5-mtAEQ assessed as Kon preincubated for 20 mins under DPBS condition; assay type: cell-based; details: filed as agonist, tested as the 3H-labelled form
[24] = target: T1, Neuropeptide Y receptor type 4; assay: Binding affinity to human Y4R expressed in CHO cells co-expressing Gqi5-mtAEQ assessed as Koff preincubated for 2 hrs under DPBS condition; assay type: cell-based; details: filed as agonist, tested as the 3H-labelled form
[25] = target: T1, Neuropeptide Y receptor type 4; assay: Binding affinity to human Y4R expressed in CHO cells co-expressing Gqi5-mtAEQ assessed as Kon preincubated for 2 hrs under DPBS condition; assay type: cell-based; details: filed as agonist, tested as the 3H-labelled form
[26] = target: T1, Neuropeptide Y receptor type 4; assay: Binding affinity to human Y4R under 150 mM sodium condition

T1 sequence (P50391 whole entry): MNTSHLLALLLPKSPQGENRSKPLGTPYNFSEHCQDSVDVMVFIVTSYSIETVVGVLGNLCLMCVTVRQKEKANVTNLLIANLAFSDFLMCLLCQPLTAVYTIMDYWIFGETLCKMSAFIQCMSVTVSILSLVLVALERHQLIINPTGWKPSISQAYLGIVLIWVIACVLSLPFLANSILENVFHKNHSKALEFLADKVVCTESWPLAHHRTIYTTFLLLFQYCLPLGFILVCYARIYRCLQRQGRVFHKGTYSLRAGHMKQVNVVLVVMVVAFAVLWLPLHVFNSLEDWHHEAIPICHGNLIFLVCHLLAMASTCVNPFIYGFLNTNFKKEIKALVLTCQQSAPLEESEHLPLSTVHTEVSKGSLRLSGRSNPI

Kd [1]: 0.67 nM
Ki ([2]; read-out: Ki): 0.41 nM
Ki ([2]; read-out: pKi (converted)): 0.209 nM
Ki ([3]; read-out: Ki): 6.7 nM
SMILES: [3H]CC([3H])C(=O)NCCCCNC(=O)/N=C(\N)NCCCC[C@H](NC(=O)[C@H](Cc1ccc(O)cc1)NC(=O)CCCCCCC(=O)N[C@@H](Cc1ccc(O)cc1)C(=O)N[C@@H](CCCNC(=N)N)C(=O)N[C@@H](CC(C)C)C(=O)N[C@@H](CCCNC(=N)N)C(=O)N[C@@H](Cc1ccc(O)cc1)C(N)=O)C(=O)N[C@@H](CC(C)C)C(=O)N[C@@H](CCCNC(=N)N)C(=O)N[C@@H](Cc1ccc(O)cc1)C(N)=O (stereo partly specified)

Stability [4]: Stable
Ki ([5]; read-out: pKi (converted)): > 1000 nM
Ki ([5]; sk-n-mc, read-out: Ki): > 1000 nM
Ki ([6]; read-out: Ki): > 3000 nM
Ki ([6]; read-out: pKi (converted)): > 3160 nM
Ki ([7]; read-out: Ki): 0.036 nM
Ki ([7]; read-out: pKi (converted)): 0.0316 nM
Ki ([8]; hec-1b cell line, read-out: Ki): > 1000 nM
Ki ([8]; read-out: pKi (converted)): > 1000 nM
Ratio pKi (Homo sapiens [9]): > 27000
Ratio pKi (Homo sapiens [9]; tested as the 3H-labelled form): > 27000
Ratio pKi (Homo sapiens [10]): > 27000
Ratio pKi (Homo sapiens [10]; tested as the 3H-labelled form): > 27000
Ratio pKi (Homo sapiens [11]): > 27000
Ratio pKi (Homo sapiens [11]; tested as the 3H-labelled form): > 27000
EC50 ([12]; read-out: EC50): 5.4 nM
EC50 ([12]; read-out: pEC50 (converted)): 5.13 nM
EC50 [13]: 5.1 nM
EC50 ([14]; read-out: EC50): 0.17 nM
EC50 ([14]; read-out: pEC50 (converted)): 0.126 nM
Emax [15]: 65%
Emax [16]: 60%
Emax [17]: 83%
K [18]: 0.071 min⁻¹
K [19]: 0.009 min⁻¹
K [20]: 6.83e+07 M⁻¹ s⁻¹
K [21]: 0.54 min⁻¹
K [22]: 0.12 min⁻¹
K [23]: 1.4e+08 M⁻¹ s⁻¹
K [24]: 0.059 min⁻¹
K [25]: 1.17e+07 M⁻¹ s⁻¹
Ki ([2]; read-out: Ki): 0.01 nM
Ki ([2]; read-out: pKi (converted)): 0.00891 nM
Ki ([3]; read-out: Ki): 0.088 nM
Ki ([3]; read-out: pKi (converted)): 0.0832 nM
SMILES: CCC(=O)NCCCC(=O)N[C@@H]1CC(=O)N[C@@H](CCCNC(=N)N)C(=O)N[C@@H](Cc2ccc(O)cc2)C(=O)N[C@H](C(=O)N[C@@H](CC(C)C)C(=O)N[C@@H](CCCNC(=N)N)C(=O)N[C@@H](Cc2ccc(O)cc2)C(N)=O)CCCN/C(N)=N/C(=O)NCCCCNC1=O.O=C(O)C(F)(F)F.O=C(O)C(F)(F)F.O=C(O)C(F)(F)F

Kd [1]: 1.1 nM
Kd [26]: 20.9 nM
SMILES: [3H]CC([3H])C(=O)NCCCC[C@H](NC(=O)[C@H](CC(C)C)NC(=O)[C@@H]1CCCN1C(=O)[C@H](C)N)C(=O)N1CCC[C@H]1C(=O)N[C@H](C(=O)N[C@@H](Cc1ccc(O)cc1)C(=O)N1CCC[C@H]1C(=O)NCC(=O)N[C@@H](CC(=O)O)C(=O)N[C@@H](CC(N)=O)C(=O)N[C@@H](C)C(=O)N[C@H](C(=O)N1CCC[C@H]1C(=O)N[C@@H](CCC(=O)O)C(=O)N[C@@H](CCC(N)=O)C(=O)NC(CCCC)C(=O)N[C@@H](C)C(=O)N[C@@H](CCC(N)=O)C(=O)N[C@@H](Cc1ccc(O)cc1)C(=O)N[C@@H](C)C(=O)N[C@@H](C)C(=O)N[C@@H](CC(N)=O)C(=O)N[C@@H](CC(C)C)C(=O)N[C@@H](CCCNC(=N)N)C(=O)N[C@@H](CCCNC(=N)N)C(=O)N[C@@H](Cc1ccc(O)cc1)C(=O)N[C@H](C(=O)N[C@@H](CC(N)=O)C(=O)NC(CCCC)C(=O)N[C@@H](CC(C)C)C(=O)N[C@H](C(=O)N[C@@H](CCCNC(=N)N)C(=O)N1CCC[C@H]1C(=O)N[C@@H](CCCNC(=N)N)C(=O)N[C@@H](Cc1ccc(O)cc1)C(N)=O)[C@@H](C)O)[C@@H](C)CC)[C@@H](C)O)C(C)C (stereo partly specified)
